Drawing on patent publication US11612165B2, “Pesticide composition for controlling Spodoptera frugiperda” (priority 2020, dated 2023), this text covers LC50 for two molecules.

For orientation: LC50 means the concentration lethal to half of the exposed cells or organisms.

The assay deals with Spodoptera frugiperda. The assay can be described thus: Indoor toxicity test, immersion method, larvae mortality after 24 h. Type of assay: in vivo. The note with it: single or mixed in different ratios, 3-day-old larvae, 25° C., read-out: LC50 (95% confidence limit). The text has this:
Pesticide for test: TC of tea saponin; TC of chlorantraniliprole; TC of tolfenpyrad;
Pest for test: Spodoptera frugiperda (2-3-day-old);
Test method: immersion method: calculating the dosage of the TC according to the active ingredients, preparing the TC into a mother solution, adding clear water to dilute the mother solution to 5-7 gradient concentrations, taking clear water treatment as a control, and setting 3 repetitions for each treatment; selecting 20 larvae with basically the same growth state, putting the larvae into an experiment barrel containing pesticide liquid, covering a gauze (to prevent escape), placing in a 25° C. incubator, investing the death situations after 24 h, recording the number of the dead larvae, and processing data by DPS statistical software.

Where two headings read alike, the source gives them in different places.

Consider `CNC(=O)c1cc(Cl)cc(C)c1NC(=O)c1cc(Br)nn1-c1ncccc1Cl` [Chlorantraniliprole (A), Chlorantraniliprole], for which the LC50 (chlorantraniliprole (A) and tea saponin (B)) was found to be 0.283 µg/mL. Turning to `CCc1nn(C)c(C(=O)NCc2ccc(Oc3ccc(C)cc3)cc2)c1Cl` [Tolfenpyrad (A), Tolfenpyrad], the LC50 (tolfenpyrad (A) and tea saponin (B)) stood at 0.563 µg/mL.
